Reference: US20070128217A1 (priority 2003, published 2007)

Columns and labels:
[1] = system: rabbit serum obtained by immunizing a rabbit with the SARS-CoV strain Frankfurt 1; type: binding; set-up: Binding of a rabbit serum to linear peptides / Binding of a rabbit serum to looped peptides / Rabbit serum linear peptides / Rabbit serum looped peptides / Binding of a rabbit serum to linear peptides of protein N of SARS-CoV Urbani (Rabbit serum linear peptides) / Binding of a rabbit serum to looped/cyclic peptides of protein N of SARS-CoV Urbani (Rabbit serum looped peptides): unit not given here
[2] = system: antibodies in sera from SARS patients (sera 1a, 1b, 2, 6, 37, 62, London, SARS-yellow, SARS-green); type: binding, human; set-up: Binding of serum 6 to linear peptides of protein X1 of SARS-CoV Urbani / Binding of serum 37 to linear peptides of protein X1 of SARS-CoV Urbani / Binding of serum 6 to looped/cyclic peptide (PEPSCAN-ELISA) / Binding of serum 37 to looped/cyclic peptide (PEPSCAN-ELISA) / Binding of serum 37 to looped/cyclic peptides of protein X1 of SARS-CoV Urbani / Binding of serum 6 to linear peptides of protein X2 / Binding of serum 37 to linear peptides of protein X2 / Binding of serum 37 to looped/cyclic peptides of protein X2 of SARS-CoV Urbani / Binding of serum 6 to linear peptides of protein M of SARS-CoV Urbani / Binding of serum 37 to linear peptides of protein M of SARS-CoV Urbani / Binding of serum 6 to looped/cyclic peptides of protein M of SARS-CoV Urbani / Binding of serum 37 to looped/cyclic peptides of protein M of SARS-CoV Urbani / Binding of serum 6 to linear peptides of protein X3 of SARS-CoV Urbani / Binding of serum 37 to linear peptides of protein X3 of SARS-CoV Urbani / Binding of serum 37 to looped/cyclic peptides of protein X3 of SARS-CoV Urbani / Binding of serum 6 to linear peptides of protein X4 of SARS-CoV Urbani / Binding of serum 37 to linear peptides of protein X4 of SARS-CoV Urbani / Binding of serum 37 to looped/cyclic peptides of protein X4 of SARS-CoV Urbani / Binding of serum 6 to linear peptides of protein X5 of SARS-CoV Urbani / Binding of serum 37 to linear peptides of protein X5 of SARS-CoV Urbani / Binding of serum 37 to looped/cyclic peptides of protein X5 of SARS-CoV Urbani / Binding of serum 6 to linear peptides of protein N of SARS-CoV Urbani / Binding of serum 37 to linear peptides of protein N of SARS-CoV Urbani / Binding of serum 6 to linear peptide (PEPSCAN-ELISA) / Binding of serum 1a to looped/cyclic peptides of protein N of SARS-CoV Urbani / Binding of serum 1b to looped/cyclic peptides of protein N of SARS-CoV Urbani / Binding of serum 2 to looped/cyclic peptides of protein N of SARS-CoV Urbani / Binding of serum 6 to looped/cyclic peptides of protein N of SARS-CoV Urbani / Binding of serum 37 to looped/cyclic peptides of protein N of SARS-CoV Urbani / Binding of serum 62 to looped/cyclic peptides of protein N of SARS-CoV Urbani / Binding of serum London to looped/cyclic peptides of protein N of SARS-CoV Urbani / Binding of serum SARS-green to looped/cyclic peptides of protein N of SARS-CoV Urbani: unit not given here
[3] = system: control sera (pooled serum of ten healthy LUMC hospital workers; commercial negative donor pooled serum from the Dutch bloodbank); type: binding, human; set-up: Binding of Control serum LUMC to linear peptides / Binding of Control serum Blood-bank to linear peptides / Binding of Control serum LUMC to looped peptides / Binding of Control Serum Blood-Bank to Looped peptides / Binding of Control serum LUMC to linear peptides of the protein M of SARS-CoV Urbani / Binding of Control serum Blood-bank to linear peptides of the protein M of SARS-CoV Urbani / Binding of Control serum LUMC to looped peptides of the protein M of SARS-CoV Urbani / Binding of Control Serum Blood-Bank to Looped peptides of the protein M of SARS-CoV Urbani: unit not given here

Sequence: DPPNVQIHTIDGSSG
- Binding of a rabbit serum to linear peptides [1]: 0.1
- Binding of a rabbit serum to looped peptides [1]: 0.4
- Binding of serum 1a to linear peptides of protein X1 of SARS-CoV Urbani [2]: 0.5
- Binding of serum 1a to looped/cyclic peptides of protein X1 of SARS-CoV Urbani [2]: 0.4
- Binding of serum 1b to linear peptides of protein X1 of SARS-CoV Urbani [2]: 0.4
- Binding of serum 1b to looped/cyclic peptides of protein X1 of SARS-CoV Urbani [2]: 0.2
- Binding of serum 2 to linear peptides of protein X1 of SARS-CoV Urbani [2]: 0.3
- Binding of serum 2 to looped/cyclic peptides of protein X1 of SARS-CoV Urbani [2]: 0.2
- Binding of serum 6 to linear peptides of protein X1 of SARS-CoV Urbani [2]: 0.3
- Binding of serum 6 to looped/cyclic peptides of protein X1 of SARS-CoV Urbani [2]: 0.2
- Binding of serum 37 to linear peptides of protein X1 of SARS-CoV Urbani [2]: 0.5
- Binding of serum 37 to looped/cyclic peptides of protein X1 of SARS-CoV Urbani [2]: 0.3
- Binding of serum 62 to linear peptides of protein X1 of SARS-CoV Urbani [2]: 0.4
- Binding of serum 62 to looped/cyclic peptides of protein X1 of SARS-CoV Urbani [2]: 0.3
- Binding of serum London to linear peptides of protein X1 of SARS-CoV Urbani [2]: 0.2
- Binding of serum London to looped/cyclic peptides of protein X1 of SARS-CoV Urbani [2]: 0.2
- Binding of serum SARS-green to linear peptides of protein X1 of SARS-CoV Urbani [2]: 0.2
- Binding of serum SARS-green to looped/cyclic peptides of protein X1 of SARS-CoV Urbani [2]: 0.2
- Binding of serum SARS-yellow to linear peptides of protein X1 of SARS-CoV Urbani [2]: 0.2
- Binding of serum SARS-yellow to looped/cyclic peptides of protein X1 of SARS-CoV Urbani [2]: 0.2
- Binding of Control Serum Blood-Bank to Looped peptides [3]: 0.4
- Binding of Control serum Blood-bank to linear peptides [3]: 0.3
- Binding of Control serum LUMC to linear peptides [3]: 0.3
- Binding of Control serum LUMC to looped peptides [3]: 0.5

Sequence: CIVGLMWLSYFVASF
- Rabbit serum linear peptides [1]: 0.1
- Rabbit serum looped peptides [1]: 0.3
- Binding of serum 1a to linear peptides of protein M of SARS-CoV Urbani [2]: 0.7
- Binding of serum 1a to looped/cyclic peptides of protein M of SARS-CoV Urbani [2]: 0.5
- Binding of serum 1b to linear peptides of protein M of SARS-CoV Urbani [2]: 0.5
- Binding of serum 1b to looped/cyclic peptides of protein M of SARS-CoV Urbani [2]: 0.2
- Binding of serum 2 to linear peptides of protein M of SARS-CoV Urbani [2]: 0.3
- Binding of serum 2 to looped/cyclic peptides of protein M of SARS-CoV Urbani [2]: 0.4
- Binding of serum 6 to linear peptides of protein M of SARS-CoV Urbani [2]: 0.3
- Binding of serum 6 to looped/cyclic peptides of protein M of SARS-CoV Urbani [2]: 0.4
- Binding of serum 37 to linear peptides of protein M of SARS-CoV Urbani [2]: 0.4
- Binding of serum 37 to looped/cyclic peptides of protein M of SARS-CoV Urbani [2]: 0.6
- Binding of serum 62 to linear peptides of protein M of SARS-CoV Urbani [2]: 0.4
- Binding of serum 62 to looped/cyclic peptides of protein M of SARS-CoV Urbani [2]: 0.4
- Binding of serum London to linear peptides of protein M of SARS-CoV Urbani [2]: 0.3
- Binding of serum London to looped/cyclic peptides of protein M of SARS-CoV Urbani [2]: 0.2
- Binding of serum SARS-green to linear peptides of protein M of SARS-CoV Urbani [2]: 0.3
- Binding of serum SARS-green to looped/cyclic peptides of protein M of SARS-CoV Urbani [2]: 0.0
- Binding of serum SARS-yellow to linear peptides of protein M of SARS-CoV Urbani [2]: 0.1
- Binding of serum SARS-yellow to looped/cyclic peptides of protein M of SARS-CoV Urbani [2]: 0.5
- Binding of Control Serum Blood-Bank to Looped peptides of the protein M of SARS-CoV Urbani [3]: 0.6
- Binding of Control serum Blood-bank to linear peptides of the protein M of SARS-CoV Urbani [3]: 0.4
- Binding of Control serum LUMC to linear peptides of the protein M of SARS-CoV Urbani [3]: 0.5
- Binding of Control serum LUMC to looped peptides of the protein M of SARS-CoV Urbani [3]: 0.7

Sequence: VTDTIVVTEGDGIST
- Binding of a rabbit serum to linear peptides [1]: 0.1
- Binding of a rabbit serum to looped peptides [1]: 0.5
- Binding of serum 1a to linear peptides of protein X1 of SARS-CoV Urbani [2]: 0.6
- Binding of serum 1a to looped/cyclic peptides of protein X1 of SARS-CoV Urbani [2]: 0.4
- Binding of serum 1b to linear peptides of protein X1 of SARS-CoV Urbani [2]: 0.5
- Binding of serum 1b to looped/cyclic peptides of protein X1 of SARS-CoV Urbani [2]: 0.3
- Binding of serum 2 to linear peptides of protein X1 of SARS-CoV Urbani [2]: 0.3
- Binding of serum 2 to looped/cyclic peptides of protein X1 of SARS-CoV Urbani [2]: 0.2
- Binding of serum 6 to linear peptides of protein X1 of SARS-CoV Urbani [2]: 0.4
- Binding of serum 6 to looped/cyclic peptides of protein X1 of SARS-CoV Urbani [2]: 0.1
- Binding of serum 37 to linear peptides of protein X1 of SARS-CoV Urbani [2]: 0.5
- Binding of serum 37 to looped/cyclic peptides of protein X1 of SARS-CoV Urbani [2]: 0.4
- Binding of serum 62 to linear peptides of protein X1 of SARS-CoV Urbani [2]: 0.4
- Binding of serum 62 to looped/cyclic peptides of protein X1 of SARS-CoV Urbani [2]: 0.4
- Binding of serum London to linear peptides of protein X1 of SARS-CoV Urbani [2]: 0.2
- Binding of serum London to looped/cyclic peptides of protein X1 of SARS-CoV Urbani [2]: 0.2
- Binding of serum SARS-green to linear peptides of protein X1 of SARS-CoV Urbani [2]: 0.1
- Binding of serum SARS-green to looped/cyclic peptides of protein X1 of SARS-CoV Urbani [2]: 0.2
- Binding of serum SARS-yellow to linear peptides of protein X1 of SARS-CoV Urbani [2]: 0.3
- Binding of serum SARS-yellow to looped/cyclic peptides of protein X1 of SARS-CoV Urbani [2]: 0.5
- Binding of Control Serum Blood-Bank to Looped peptides [3]: 0.4
- Binding of Control serum Blood-bank to linear peptides [3]: 0.4
- Binding of Control serum LUMC to linear peptides [3]: 0.4
- Binding of Control serum LUMC to looped peptides [3]: 0.4
